Literature values, collected in patent US7279184B2, “Methods and compositions comprising Ilex” (HerbalScience, LLC, priority 2003, dated 2007).

half-life after ingestion: approximately 6 hours
Compound: Cn1cnc2c1c(=O)[nH]c(=O)n2C [Theobromine, 3,7-dimethyl-xanthine]
